Source: patent publication US6825172B2, “3-descladinosyl-6-O-carbamoyl and 6-O-carbonoyl macrolide antibacterial agents” (Janssen Pharmaceutica, NV, priority 2002, dated 2004)
Values after ≈ are worked out from the molar mass of the structure shown.

Tests used:
Test in all cases: MIC, microdilution broth method (NCCLS)
Assay type in all cases: cell-based
[1] = system: E. coli OC2605; conditions: Escherichia coli, Table 1, 6-Carbamoyl-3-Acyl Macrolide Derivatives, read-out: MIC Values, A: E. coli OC2605
Description: (§1) Minimal inhibitory concentration (MIC) has been an indicator of in vitro antibacterial activity widely used in the art. The in vitro antimicrobial activity of the compounds was determined by the microdilution broth method following the test method from the National Committee for Clinical Laboratory Standards (NCCLS). This method is described in the NCCLS Document M7-A4, Vol.17, No.2, “Methods for Dilution Antimicrobial Susceptibility Test for Bacteria that Grow Aerobically—Fourth Edition”, which is incorporated herein by reference.
(§2) In this method two-fold serial dilutions of drug in cation adjusted Mueller-Hinton broth are added to wells in microdilution trays. The test organisms are prepared by adjusting the turbidity of actively growing broth cultures so that the final concentration of test organism after it is added to the wells is approximately 5×10^4 CFU/well.
(§3) Following inoculation of the microdilution trays, the trays are incubated at 35 °C for 16-20 hours and then read. […] The amount of growth in the wells containing the test compound is compared with the amount of growth in the growth-control wells (no test compound) used in each tray. As set forth in Table 1, compounds of the present invention were tested against a variety of Gram positive and Gram negative pathogenic bacteria resulting in a range of activities depending on the organism tested.

[2] = system: E. faecalis ATCC29212; conditions: Enterococcus faecalis, Table 1, 6-Carbamoyl-3-Acyl Macrolide Derivatives, read-out: MIC Values, C: E. faecalis ATCC29212
Description: as §1, §2, §3

[3] = system: H. influenzae ATCC49247; conditions: Haemophilus influenzae, Table 1, 6-Carbamoyl-3-Acyl Macrolide Derivatives, read-out: MIC Values, E: H. influenzae ATCC49247
Description: as §1, §2, §3

[4] = system: S. aureus ATCC29213; conditions: Staphylococcus aureus, Table 1, 6-Carbamoyl-3-Acyl Macrolide Derivatives, read-out: MIC Values, B: S. aureus ATCC29213
Description: as §1, §2, §3

[5] = system: S. pneumoniae ATCC49619; conditions: Streptococcus pneumoniae, Table 1, 6-Carbamoyl-3-Acyl Macrolide Derivatives, read-out: MIC Values, D: S. pneumoniae ATCC49619
Description: as §1, §2, §3

CC[C@H]1OC(=O)[C@H](C)[C@@H](OC(=O)/C=C/c2cccnc2)[C@H](C)[C@@H](O[C@@H]2O[C@H](C)C[C@H](N(C)C)[C@H]2O)[C@](C)(OC(=O)NC/C=C/c2ccc(-c3ncccn3)cc2)C[C@@H](C)C(=O)[C@H](C)[C@H]2NC(=O)O[C@@]21C [Compound 6]
MIC [1]: > 16 µg/mL
MIC [2]: 1 µg/mL (≈ 1.03 µM)
MIC [3]: > 16 µg/mL
MIC [4]: 2 µg/mL (≈ 2.06 µM)
MIC [5]: 0.12 µg/mL (≈ 0.124 µM)

CC[C@H]1OC(=O)[C@H](C)[C@@H](OC(=O)c2cccnc2)[C@H](C)[C@@H](O[C@@H]2O[C@H](C)C[C@H](N(C)C)[C@H]2O)[C@](C)(OC(=O)NC/C=C/c2ccc(-c3ncccn3)cc2)C[C@@H](C)C(=O)[C@H](C)[C@H]2NC(=O)O[C@@]21C [Compound 7]
MIC [1]: > 16 µg/mL
MIC [2]: 0.5 µg/mL (≈ 0.53 µM)
MIC [3]: 8 µg/mL (≈ 8.48 µM)
MIC [4]: 1 µg/mL (≈ 1.06 µM)
MIC [5]: 0.06 µg/mL (≈ 0.0636 µM)

CC[C@H]1OC(=O)[C@H](C)[C@@H](OC(=O)Cc2ccncc2)[C@H](C)[C@@H](O[C@@H]2O[C@H](C)C[C@H](N(C)C)[C@H]2O)[C@](C)(OC(=O)NC/C=C/c2ccc(-c3ncccn3)cc2)C[C@@H](C)C(=O)[C@H](C)[C@H]2NC(=O)O[C@@]21C [Compound 8]
MIC [1]: 16 µg/mL (≈ 16.7 µM)
MIC [2]: 0.25 µg/mL (≈ 0.261 µM)
MIC [3]: 2 µg/mL (≈ 2.09 µM)
MIC [4]: 0.5 µg/mL (≈ 0.522 µM)
MIC [5]: 0.06 µg/mL (≈ 0.0627 µM)

CC[C@H]1OC(=O)[C@H](C)[C@@H](OC(=O)c2ccc([N+](=O)[O-])cc2)[C@H](C)[C@@H](O[C@@H]2O[C@H](C)C[C@H](N(C)C)[C@H]2O)[C@](C)(OC(=O)NC/C=C/c2ccc(-c3ncccn3)cc2)C[C@@H](C)C(=O)[C@H](C)[C@H]2NC(=O)O[C@@]21C [Compound 10]
MIC [1]: > 16 µg/mL
MIC [2]: 1 µg/mL (≈ 1.01 µM)
MIC [3]: 8 µg/mL (≈ 8.1 µM)
MIC [4]: 2 µg/mL (≈ 2.03 µM)
MIC [5]: 0.12 µg/mL (≈ 0.122 µM)

CC[C@H]1OC(=O)[C@H](C)[C@@H](OC(=O)Cc2cn(C)c3ccccc23)[C@H](C)[C@@H](O[C@@H]2O[C@H](C)C[C@H](N(C)C)[C@H]2O)[C@](C)(OC(=O)NC/C=C/c2ccc(-c3ncccn3)cc2)C[C@@H](C)C(=O)[C@H](C)[C@H]2NC(=O)O[C@@]21C [Compound 11]
MIC [1]: > 16 µg/mL
MIC [2]: 2 µg/mL (≈ 1.98 µM)
MIC [3]: 8 µg/mL (≈ 7.93 µM)
MIC [4]: 2 µg/mL (≈ 1.98 µM)
MIC [5]: 0.25 µg/mL (≈ 0.248 µM)

CC[C@H]1OC(=O)[C@H](C)[C@@H](OC(C)=O)[C@H](C)[C@@H](O[C@@H]2O[C@H](C)C[C@H](N(C)C)[C@H]2O)[C@](C)(OC(=O)NC/C=C/c2ccc(-c3ncccn3)cc2)C[C@@H](C)C(=O)[C@H](C)[C@H]2NC(=O)O[C@@]21C [Compound 12]
MIC [1]: > 16 µg/mL
MIC [2]: 0.25 µg/mL (≈ 0.284 µM)
MIC [3]: 8 µg/mL (≈ 9.09 µM)
MIC [4]: 1 µg/mL (≈ 1.14 µM)
MIC [5]: 0.06 µg/mL (≈ 0.0682 µM)

CC[C@H]1OC(=O)[C@H](C)[C@@H](OC(=O)CC2CC2)[C@H](C)[C@@H](O[C@@H]2O[C@H](C)C[C@H](N(C)C)[C@H]2O)[C@](C)(OC(=O)NC/C=C/c2ccc(-c3ncccn3)cc2)C[C@@H](C)C(=O)[C@H](C)[C@H]2NC(=O)O[C@@]21C [Compound 13]
MIC [1]: > 16 µg/mL
MIC [2]: 0.5 µg/mL (≈ 0.543 µM)
MIC [3]: 8 µg/mL (≈ 8.69 µM)
MIC [4]: 0.5 µg/mL (≈ 0.543 µM)
MIC [5]: 0.06 µg/mL (≈ 0.0652 µM)

CCC(=O)O[C@H]1[C@H](C)[C@@H](O[C@@H]2O[C@H](C)C[C@H](N(C)C)[C@H]2O)[C@](C)(OC(=O)NC/C=C/c2ccc(-c3ncccn3)cc2)C[C@@H](C)C(=O)[C@H](C)[C@H]2NC(=O)O[C@]2(C)[C@@H](CC)OC(=O)[C@@H]1C [Compound 14]
MIC [1]: 16 µg/mL (≈ 17.9 µM)
MIC [2]: 0.25 µg/mL (≈ 0.28 µM)
MIC [3]: 4 µg/mL (≈ 4.47 µM)
MIC [4]: 0.25 µg/mL (≈ 0.28 µM)
MIC [5]: 0.06 µg/mL (≈ 0.0671 µM)

CC[C@H](C)C(=O)O[C@H]1[C@H](C)[C@@H](O[C@@H]2O[C@H](C)C[C@H](N(C)C)[C@H]2O)[C@](C)(OC(=O)NC/C=C/c2ccc(-c3ncccn3)cc2)C[C@@H](C)C(=O)[C@H](C)[C@H]2NC(=O)O[C@]2(C)[C@@H](CC)OC(=O)[C@@H]1C [Compound 15]
MIC [1]: > 16 µg/mL
MIC [2]: 0.5 µg/mL (≈ 0.542 µM)
MIC [3]: 4 µg/mL (≈ 4.34 µM)
MIC [4]: 0.5 µg/mL (≈ 0.542 µM)
MIC [5]: 0.06 µg/mL (≈ 0.0651 µM)
